Experimental data as given in article PMC8101546 (Biochimica et biophysica acta. Molecular cell research, 2018).

Key:
NAADP receptor [1] = assay: Self-desensitization to subsequent 1 μM NAADP in sea urchin egg homogenate; assay type: biochemical, Strongylocentrotus purpuratus; settings: read-out: IC50 for desensitization to NAADP-evoked Ca2+ release, subsequent addition of 1 μM NAADP, n = 3, ± STDEV
NAADP receptor [2] = assay: Ca2+ release assay in sea urchin egg homogenate; assay type: biochemical, Strongylocentrotus purpuratus; settings: read-out: Ca2+ mobilizing EC50, fluo-3, n = 3, ± STDEV
U2OS cells = assay: Ca2+ mobilization after microinjection into U2OS cells expressing GCaMP6M; assay type: cell-based, human; settings: GCaMP6M fluorescence
35 kDa protein = assay type: binding, human; settings: U2OS cell extracts; for IC50: read-out: IC50 for displacement of photolabeling of the 35 kDa band, [32P]-5N3-8-ethynyl-NAADP (0.23 nM) photoprobe, densitometry
23 kDa protein = assay type: binding, human; settings: U2OS cell extracts; for IC50: read-out: IC50 for displacement of photolabeling of the 23 kDa protein, [32P]-5N3-8-ethynyl-NAADP (0.23 nM) photoprobe, densitometry

Row | EC50 (NAADP receptor [2]) [nM] | displacement of 23 kDa photolabeling, more penetrant compared to NADP (23 kDa protein; ratio of IC50 values NADP/NAADP) | Structure (SMILES) | IC50 (NAADP receptor [1]) [nM] | peak F/F0 (Ca2+ response) (U2OS cells; 1 μM in pipette, n = 3) | peak F/F0 (Ca2+ response) (U2OS cells; 10 μM in pipette, n = 3) | lower affinity of the 35 kDa band in contrast to the 23 kDa band (35 kDa protein; ratio of IC50 values 35 kDa/23 kDa) | IC50 (35 kDa protein) [nM] | IC50 (23 kDa protein) [nM] | peak F/F0 (Ca2+ response) (U2OS cells; 100 nM in pipette, n = 3 injections)
1 | 2860 ± 400 |  | C#Cc1nc2c(N)ncnc2n1C1OC(COP(=O)(O)OP(=O)(O)OC[C@H]2O[C@@H]([n+]3cc(N=[N+]=[N-])cc(C(=O)[O-])c3)[C@H](O)[C@@H]2O)C(O)C1OP(=O)(O)O (some centres unmarked) [5N3-8-ethynyl-NAADP, 5-Azido-8-ethynyl-NAADP] | 99 ± 7.7 | 2.14 ± 0.37 | 2.8 ± 0.33 |  |  |  | 
2 |  | ~ 9 fold | Nc1ncnc2c1ncn2[C@@H]1O[C@H](COP(=O)(O)OP(=O)(O)OCC2OC([n+]3cccc(C(=O)[O-])c3)C(O)C2O)[C@@H](O)[C@H]1OP(=O)(O)O (stereo in doubt) [NAADP, nicotinic acid adenine dinucleotide 2′-phosphate] |  |  |  | ~ 8 fold | 213 ± 19 | 27 ± 1.3 | 4.01 ± 1.2
3 |  |  | NC(=O)c1ccc[n+]([C@@H]2O[C@H](COP(=O)([O-])OP(=O)(O)OC[C@H]3O[C@@H](n4cnc5c(N)ncnc54)[C@H](OP(=O)(O)O)[C@@H]3O)[C@@H](O)[C@H]2O)c1 [NADP, nicotinamide adenine dinucleotide 2′-phosphate] |  |  |  |  | 940 ± 204 | 246 ± 13 | 
